Measurements published in patent publication US9695155B2, “Herbicidal substituted pyrimidinyloxy benzene compounds” (E. I. DU PONT DE NEMOURS AND COMPANY, priority 2013, dated 2017).

Key:
[1] = tested on: barnyardgrass; experiment: Test A preemergence; format: in vivo, Echinochloa crus-galli; details: for Barnyardgrass plant response rating (0 to 100 scale, 0 is no effect, 100 is complete control) / Plant response rating, Barnyardgrass: 125 g ai/ha; for Barnyardgrass plant response rating: 500 g ai/ha
Summary of the method: (§1)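 Greenhouse pot test, loam/sand soil. Formulation: non-phytotoxic solvent mix plus surfactant. Pre: directed spray onto soil after sowing. Post: plants at 1–2 leaf, 2–10 cm. Rated visually vs untreated controls at ~10 d, 0 (no effect) to 100 (complete control).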

[2] = tested on: large (Lg) crabgrass; experiment: Test A preemergence; format: in vivo, Digitaria sanguinalis; details: for Crabgrass, Large plant response rating (0 to 100 scale) / Plant response rating, Crabgrass, Large: 125 g ai/ha; for Crabgrass, Large plant response rating: 500 g ai/ha
Summary of the method: as §1

[3] = tested on: giant foxtail; experiment: Test A preemergence; format: in vivo, Setaria faberii; details: for Foxtail, Giant plant response rating (0 to 100 scale) / Plant response rating, Foxtail, Giant: 125 g ai/ha; for Foxtail, Giant plant response rating: 500 g ai/ha
Summary of the method: as §1

[4] = tested on: morningglory; experiment: Test A preemergence; format: in vivo, Ipomoea spp.; details: for Morningglory plant response rating (0 to 100 scale) / Plant response rating, Morningglory: 125 g ai/ha; for Morningglory plant response rating: 500 g ai/ha
Summary of the method: as §1

[5] = tested on: pigweed; experiment: Test A preemergence; format: in vivo, Amaranthus retroflexus; details: for Pigweed plant response rating (0 to 100 scale) / Plant response rating, Pigweed: 125 g ai/ha; for Pigweed plant response rating: 500 g ai/ha
Summary of the method: as §1

[6] = tested on: velvetleaf; experiment: Test A preemergence; format: in vivo, Abutilon theophrasti; details: for Velvetleaf plant response rating (0 to 100 scale) / Plant response rating, Velvetleaf: 125 g ai/ha; for Velvetleaf plant response rating: 500 g ai/ha
Summary of the method: as §1

[7] = tested on: wheat; experiment: Test A preemergence; format: in vivo, Triticum aestivum; details: for Wheat plant response rating (0 to 100 scale) / Plant response rating, Wheat: 125 g ai/ha; for Wheat plant response rating: 500 g ai/ha
Summary of the method: as §1

[8] = tested on: corn; experiment: Test A preemergence; format: in vivo, Zea mays; details: for Corn plant response rating (0 to 100 scale) / Plant response rating, Corn: 125 g ai/ha; for Corn plant response rating: 500 g ai/ha
Summary of the method: as §1

[9] = tested on: barnyardgrass; experiment: Test A postemergence; format: in vivo, Echinochloa crus-galli
Summary of the method: as §1

[10] = tested on: large (Lg) crabgrass; experiment: Test A postemergence; format: in vivo, Digitaria sanguinalis
Summary of the method: as §1

[11] = tested on: giant foxtail; experiment: Test A postemergence; format: in vivo, Setaria faberii
Summary of the method: as §1

[12] = tested on: morningglory; experiment: Test A postemergence; format: in vivo, Ipomoea spp.
Summary of the method: as §1

[13] = tested on: pigweed; experiment: Test A postemergence; format: in vivo, Amaranthus retroflexus
Summary of the method: as §1

[14] = tested on: velvetleaf; experiment: Test A postemergence; format: in vivo, Abutilon theophrasti
Summary of the method: as §1

[15] = tested on: wheat; experiment: Test A postemergence; format: in vivo, Triticum aestivum
Summary of the method: as §1

[16] = tested on: corn; experiment: Test A postemergence; format: in vivo, Zea mays
Summary of the method: as §1

[17] = tested on: rice; experiment: Test B flooded paddy test; format: in vivo, Oryza sativa; details: Flood, 250 g ai/ha; 0 to 100 scale where 0 is no effect and 100 is complete control
Summary of the method: (§2)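 2-leaf stage plants; pots flooded to 3 cm, compound added to paddy water, depth maintained. Greenhouse 13–15 d. Visual rating vs untreated controls, 0 (no effect) to 100 (complete control); dash = no result.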

[18] = tested on: sedge, umbrella; experiment: Test B flooded paddy test; format: in vivo, Cyperus difformis; details: Flood, 250 g ai/ha; 0 to 100 scale where 0 is no effect and 100 is complete control
Summary of the method: as §2

[19] = tested on: Heteranthera limosa; experiment: Test B flooded paddy test; format: in vivo; details: Flood, 250 g ai/ha; 0 to 100 scale where 0 is no effect and 100 is complete control
Summary of the method: as §2

[20] = tested on: barnyardgrass; experiment: Test B flooded paddy test; format: in vivo, Echinochloa crus-galli; details: Flood, 250 g ai/ha; 0 to 100 scale where 0 is no effect and 100 is complete control
Summary of the method: as §2

[21] = 0 to 100 scale where 0 is no effect and 100 is complete control
[22] = 125 g ai/ha, 0 to 100 scale where 0 is no effect and 100 is complete control
[23] = 500 g ai/ha, 0 to 100 scale where 0 is no effect and 100 is complete control
[24] = 0 to 100 scale, 0 no effect, 100 complete control, approx. 10 days
[25] = 500 g ai/ha, 0 to 100 scale, 0 no effect, 100 complete control

## O=Cc1cccc(Oc2ncc(Br)cn2)c1-n1cc(Cl)cn1 [Compound 206]
[1]
  Barnyardgrass plant response rating (0 to 100 scale, 0 is no effect, 100 is complete control): 0
[1]; [21]
  Barnyardgrass plant response rating: 0
[2]
  Crabgrass, Large plant response rating (0 to 100 scale): 0
[2]; [21]
  Crabgrass, Large plant response rating: 0
[3]
  Foxtail, Giant plant response rating (0 to 100 scale): 0
[3]; [21]
  Foxtail, Giant plant response rating: 0
[4]
  Morningglory plant response rating (0 to 100 scale): 0
[4]; [21]
  Morningglory plant response rating: 0
[5]
  Pigweed plant response rating (0 to 100 scale): 0
[5]; [21]
  Pigweed plant response rating: 50
[6]
  Velvetleaf plant response rating (0 to 100 scale): 0
[6]; [21]
  Velvetleaf plant response rating: 0
[7]
  Wheat plant response rating (0 to 100 scale): 0
[7]; [21]
  Wheat plant response rating: 0
[8]
  Corn plant response rating (0 to 100 scale): 0
[8]; [21]
  Corn plant response rating: 0
[9]; [22]
  Barnyardgrass plant response rating: 0
[9]; [23]
  Plant response rating, Barnyardgrass: 0
[10]; [22]
  Crabgrass, Large plant response rating: 0
[10]; [23]
  Plant response rating, Crabgrass, Large: 0
[11]; [22]
  Foxtail, Giant plant response rating: 0
[11]; [23]
  Plant response rating, Foxtail, Giant: 0
[12]; [22]
  Morningglory plant response rating: 0
[12]; [23]
  Plant response rating, Morningglory: 0
[13]; [22]
  Pigweed plant response rating: 0
[13]; [23]
  Plant response rating, Pigweed: 0
[14]; [22]
  Velvetleaf plant response rating: 10
[14]; [23]
  Plant response rating, Velvetleaf: 20
[15]; [22]
  Wheat plant response rating: 0
[15]; [23]
  Plant response rating, Wheat: 0
[16]; [22]
  Corn plant response rating: 0
[16]; [23]
  Plant response rating, Corn: 0
[17]
  Plant response rating, Rice: 0
[18]
  Plant response rating, Sedge, Umbrella: 0
[19]
  Plant response rating, Ducksalad: 0
[20]
  Plant response rating, Barnyardgrass: 0

## O=Cc1cccc(Oc2ncc(Br)cn2)c1-n1cc(Br)cn1 [Compound 230]
[1]
  Barnyardgrass plant response rating (0 to 100 scale, 0 is no effect, 100 is complete control): 0
[1]; [21]
  Barnyardgrass plant response rating: 0
[2]
  Crabgrass, Large plant response rating (0 to 100 scale): 0
[2]; [21]
  Crabgrass, Large plant response rating: 0
[3]
  Foxtail, Giant plant response rating (0 to 100 scale): 0
[3]; [21]
  Foxtail, Giant plant response rating: 0
[4]
  Morningglory plant response rating (0 to 100 scale): 0
[4]; [21]
  Morningglory plant response rating: 0
[5]
  Pigweed plant response rating (0 to 100 scale): 0
[5]; [21]
  Pigweed plant response rating: 70
[6]
  Velvetleaf plant response rating (0 to 100 scale): 0
[6]; [21]
  Velvetleaf plant response rating: 0
[7]
  Wheat plant response rating (0 to 100 scale): 0
[7]; [21]
  Wheat plant response rating: 0
[8]
  Corn plant response rating (0 to 100 scale): 0
[8]; [21]
  Corn plant response rating: 0
[9]; [22]
  Barnyardgrass plant response rating: 0
[9]; [23]
  Plant response rating, Barnyardgrass: 20
[10]; [22]
  Crabgrass, Large plant response rating: 0
[10]; [23]
  Plant response rating, Crabgrass, Large: 10
[11]; [22]
  Foxtail, Giant plant response rating: 0
[11]; [23]
  Plant response rating, Foxtail, Giant: 20
[12]; [22]
  Morningglory plant response rating: 0
[12]; [23]
  Plant response rating, Morningglory: 0
[13]; [22]
  Pigweed plant response rating: 30
[13]; [23]
  Plant response rating, Pigweed: 60
[14]; [22]
  Velvetleaf plant response rating: 0
[14]; [23]
  Plant response rating, Velvetleaf: 30
[15]; [22]
  Wheat plant response rating: 0
[15]; [23]
  Plant response rating, Wheat: 0
[16]; [22]
  Corn plant response rating: 0
[16]; [23]
  Plant response rating, Corn: 0
[17]
  Plant response rating, Rice: 35
[18]
  Plant response rating, Sedge, Umbrella: 50
[19]
  Plant response rating, Ducksalad: 20
[20]
  Plant response rating, Barnyardgrass: 20

## Clc1cnc(Oc2cc(Cl)ccc2-n2cc(Br)cn2)nc1 [Compound 51]
[1]; [21]
  Plant response rating, Barnyardgrass: 20
[1]; [24]
  Barnyardgrass plant response rating: 30
[2]; [21]
  Plant response rating, Crabgrass, Large: 40
[2]; [24]
  Crabgrass, Large plant response rating: 90
[3]; [21]
  Plant response rating, Foxtail, Giant: 20
[3]; [24]
  Foxtail, Giant plant response rating: 80
[4]; [21]
  Plant response rating, Morningglory: 0
[4]; [24]
  Morningglory plant response rating: 0
[5]; [21]
  Plant response rating, Pigweed: 10
[5]; [24]
  Pigweed plant response rating: 80
[6]; [21]
  Plant response rating, Velvetleaf: 0
[6]; [24]
  Velvetleaf plant response rating: 0
[7]; [21]
  Plant response rating, Wheat: 0
[7]; [24]
  Wheat plant response rating: 0
[8]; [21]
  Plant response rating, Corn: 0
[8]; [24]
  Corn plant response rating: 0
[9]; [22]
  Plant response rating, Barnyardgrass: 0
[9]; [25]
  Plant response rating, Barnyardgrass: 10
[10]; [22]
  Plant response rating, Crabgrass, Large: 0
[10]; [25]
  Plant response rating, Crabgrass, Large: 20
[11]; [22]
  Plant response rating, Foxtail, Giant: 0
[11]; [25]
  Plant response rating, Foxtail, Giant: 10
[12]; [22]
  Plant response rating, Morningglory: 10
[12]; [25]
  Plant response rating, Morningglory: 20
[13]; [22]
  Plant response rating, Pigweed: 30
[13]; [25]
  Plant response rating, Pigweed: 70
[14]; [22]
  Plant response rating, Velvetleaf: 50
[14]; [25]
  Plant response rating, Velvetleaf: 60
[15]; [22]
  Plant response rating, Wheat: 0
[15]; [25]
  Plant response rating, Wheat: 0
[16]; [22]
  Plant response rating, Corn: 0
[16]; [25]
  Plant response rating, Corn: 20
[17]
  Plant response rating, Rice: 0
[18]
  Plant response rating, Sedge, Umbrella: 65
[19]
  Plant response rating, Ducksalad: 40
[20]
  Plant response rating, Barnyardgrass: 0

## N#Cc1cccc(Oc2ncc(Br)cn2)c1-n1cc(Cl)cn1 [Compound 71]
[1]; [21]
  Plant response rating, Barnyardgrass: 60
[1]; [24]
  Barnyardgrass plant response rating: 100
[2]; [21]
  Plant response rating, Crabgrass, Large: 100
[2]; [24]
  Crabgrass, Large plant response rating: 100
[3]; [21]
  Plant response rating, Foxtail, Giant: 100
[3]; [24]
  Foxtail, Giant plant response rating: 100
[4]; [21]
  Plant response rating, Morningglory: 90
[4]; [24]
  Morningglory plant response rating: 90
[5]; [21]
  Plant response rating, Pigweed: 100
[5]; [24]
  Pigweed plant response rating: 100
[6]; [21]
  Plant response rating, Velvetleaf: 70
[6]; [24]
  Velvetleaf plant response rating: 100
[7]; [21]
  Plant response rating, Wheat: 20
[7]; [24]
  Wheat plant response rating: 40
[8]; [21]
  Plant response rating, Corn: 30
[8]; [24]
  Corn plant response rating: 40
[9]; [22]
  Plant response rating, Barnyardgrass: 80
[9]; [25]
  Plant response rating, Barnyardgrass: 90
[10]; [22]
  Plant response rating, Crabgrass, Large: 70
[10]; [25]
  Plant response rating, Crabgrass, Large: 100
[11]; [22]
  Plant response rating, Foxtail, Giant: 80
[11]; [23]
  Plant response rating, Foxtail, Giant: 90
[12]; [22]
  Plant response rating, Morningglory: 70
[12]; [23]
  Plant response rating, Morningglory: 90
[13]; [22]
  Plant response rating, Pigweed: 100
[13]; [23]
  Plant response rating, Pigweed: 100
[14]; [22]
  Plant response rating, Velvetleaf: 90
[14]; [23]
  Plant response rating, Velvetleaf: 100
[15]; [22]
  Plant response rating, Wheat: 10
[15]; [23]
  Plant response rating, Wheat: 40
[16]; [22]
  Plant response rating, Corn: 30
[16]; [25]
  Plant response rating, Corn: 60
[17]
  Plant response rating, Rice: 30
[18]
  Plant response rating, Sedge, Umbrella: 70
[19]
  Plant response rating, Ducksalad: 0
[20]
  Plant response rating, Barnyardgrass: 0
